Data reported in patent publication US11530229B2, “Cyano cyclobutyl compounds for CBL-B inhibition and uses thereof” (Nurix Therapeutics, Inc., priority 2019, dated 2022).
Read-outs that look alike come from different tables or passages of the source.

What was measured:
[1] = tested on: primary human total T-cells; experiment: T-cell activation, IL-2 secretion, Biological Example 2; assay type: cell-based; settings: 48 hours, fold change over baseline; for fold induction at 0.3 µM: 0.3 μM inhibitor; for fold induction at 1 µM: 1 μM inhibitor; for fold induction at 3 µM: 3 μM inhibitor
[2] = tested on: primary human total T-cells; experiment: T-cell activation, CD25 surface staining, Biological Example 2; assay type: cell-based; settings: 48 hours, fold change over baseline; for fold induction at 0.3 µM: 0.3 μM inhibitor; for fold induction at 1 µM: 1 μM inhibitor; for fold induction at 3 µM: 3 μM inhibitor
Cbl-b = Cbl-b (Homo sapiens (Human), UniProt Q13191); experiment: Cbl-b displacement assay (Cbl-b inhibition assay), Biological Example 1; assay type: binding
Description: Candidate compounds were evaluated for their ability to bind and inhibit Cbl-b, an E3 ubiquitin-protein ligase, as evidenced by their ability to displace a fluorophore-labeled probe (Example 59) bound to Cbl-b.
The ability of candidate compounds to displace a known inhibitor and thereby inhibit Cbl-b activity was measured by monitoring the interaction of Cbl-b with a fluorophore-labeled probe in the presence of the candidate compound. A truncated variant of Cbl-b (UniProt number Q13191; SEQ ID NO:1) containing an Avitag at its N-terminus was co-expressed with BirA biotin ligase and purified using a standard protocol (see Dou et al., Nature Structural and Molecular Biology, 8: 982-987, 2013; Avidity LLC).
Cbl-b Amino Acid Residues 36-427:
Fluorescently-labeled inhibitor probe was synthesized and tagged with BODIPY FL (Example 59). Cbl-b displacement assays were performed in a 384-well plate at room temperature in a 10 μL reaction volume by pre-incubating 0.5 nM Cbl-b or 0.125 nM Cbl-b (final concentration, indicated as “High” and “Low”, respectively) in an assay buffer containing 20 mM HEPES pH 7.5, 150 mM NaCl, 0.01% Triton X-100, 0.01% BSA and 0.5 mM TCEP in the presence of a candidate compound in 1% DMSO (final concentration) for 1 hour. After incubation in the presence of the candidate compound, the plate was incubated for an additional 1 hour in the presence of an approximate EC40 binding saturation consisting of 150 nM fluorescently-labeled inhibitor probe and 2 nM Streptavidin-Terbium (Cisbio) (final concentrations). Following the 1 hour incubation, the plates were read for TR-FRET signal at […] using an Envision plate reader (Perkin Elmer).

[3] = anti-CD3 and anti-CD28 co-stimulation
[4] = anti-CD3 and anti-CD28 co-stimulation, read-out: IL-2 secretion CD3/CD28 1 μM
[5] = anti-CD3 stimulation alone, read-out: IL-2 secretion CD3 1 μM
[6] = anti-CD3 and anti-CD28 co-stimulation, read-out: CD25 staining CD3/CD28 1 μM
[7] = anti-CD3 stimulation alone, read-out: CD25 staining CD3 1 μM
[8] = 0.125 nM Cbl-b final concentration (Low), read-out: Cbl-b activity IC50 (Low)
[9] = read-out: IC50 values in the Cbl-b inhibition assay of Biological Example 1

Cbl-b, sequence (Q13191 36-427): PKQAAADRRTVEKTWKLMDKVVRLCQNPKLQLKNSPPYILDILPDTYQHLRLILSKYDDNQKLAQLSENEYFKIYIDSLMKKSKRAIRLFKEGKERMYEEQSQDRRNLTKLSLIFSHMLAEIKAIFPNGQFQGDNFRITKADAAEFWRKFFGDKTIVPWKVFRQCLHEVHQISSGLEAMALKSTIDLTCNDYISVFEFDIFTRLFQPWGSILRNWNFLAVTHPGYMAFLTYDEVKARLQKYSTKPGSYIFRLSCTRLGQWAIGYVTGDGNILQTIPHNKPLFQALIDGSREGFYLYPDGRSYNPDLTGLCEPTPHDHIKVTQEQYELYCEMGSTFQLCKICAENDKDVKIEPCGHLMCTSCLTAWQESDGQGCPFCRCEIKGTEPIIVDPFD

| Compound | fold induction at 0.3 µM [1, 3] | fold induction at 1 µM [1, 4] | fold induction at 1 µM [1, 5] | fold induction at 3 µM ([1]; anti-CD3 stimulation alone) | fold induction at 0.3 µM [2, 3] | fold induction at 1 µM [2, 6] | fold induction at 1 µM [2, 7] | fold induction at 3 µM ([2]; anti-CD3 stimulation alone) | IC50 (Cbl-b; [8]) [nM] | IC50 (Cbl-b; [9]) [nM] | IC50 (Cbl-b; 0.5 nM Cbl-b final concentration (High), read-out: Cbl-b activity IC50 (High)) [nM] |
| --- | --- | --- | --- | --- | --- | --- | --- | --- | --- | --- | --- |
| CCC1CN(Cc2cc3c(c(C(F)(F)F)c2)CN(c2cccc([C@]4(Cc5nncn5C)C[C@@H](C#N)C4)c2)C3=O)CCCO1 (stereo partly shown) [Compound 5, (1r,3r)-3-(3-(6-((2-ethyl-1,4-oxazepan-4-yl)methyl)-1-oxo-4-(trifluoromethyl)isoindolin-2-yl)phenyl)-3-((4-methyl-4H-1,2,4-triazol-3-yl)methyl)cyclobutane-1-carbonitrile] | > 20 | > 20 | > 0.85 | > 0.85 | > 1.39 | > 1.39 | > 1.15 | > 1.15 | 2 to 5 | 2 to 5 | – |
| C[C@@H]1C[C@H](C)CN(Cc2cc(C(=O)Nc3cccc([C@]4(Cc5nncn5C)C[C@@H](C#N)C4)c3)nc(C3CC3)c2)C1 [Compound 54] | > 20 | > 20 | > 0.85 | > 0.85 | 1.24 to 1.39 | 1.24 to 1.39 | ≤ 1 | ≤ 1 | < 1 | – | – |
| COCC1COCCN(Cc2cc3c(c(C(F)(F)F)c2)CN(c2cccc([C@]4(Cc5nncn5C)C[C@@H](C#N)C4)c2)C3=O)C1 (stereo partly shown) [Compound 46, (1r,3r)-3-(3-(6-((6-(methoxymethyl)-1,4-oxazepan-4-yl)methyl)-1-oxo-4-(trifluoromethyl)isoindolin-2-yl)phenyl)-3-((4-methyl-4H-1,2,4-triazol-3-yl)methyl)cyclobutane-1-carbonitrile] | ≤ 15 | 15 to 20 | 0.4 to 0.85 | > 0.85 | > 1.39 | > 1.39 | > 1.15 | > 1.15 | 5 to 20 | 5 to 20 | – |
| Cn1cnnc1C[C@]1(c2cccc(N3Cc4c(cc(CN5CCOCC6(CC6)C5)cc4C(F)(F)F)C3=O)c2)C[C@H](C#N)C1 [Compound 30, (1r,3r)-3-(3-(6-((5-oxa-8-azaspiro[2.6]nonan-8-yl)methyl)-1-oxo-4-(trifluoromethyl)isoindolin-2-yl)phenyl)-3-((4-methyl-4H-1,2,4-triazol-3-yl)methyl)cyclobutane-1-carbonitrile] | ≤ 15 | ≤ 15 | < 0.4 | < 0.4 | ≤ 1.24 | ≤ 1.24 | ≤ 1 | 1 to 1.15 | 2 to 5 | – | – |
| Cn1cnnc1C[C@]1(c2cccc(N3Cc4c(cccc4C(F)(F)F)C3=O)c2)C[C@H](C#N)C1 [Compound 3, (1r,3r)-3-((4-methyl-4H-1,2,4-triazol-3-yl)methyl)-3-(3-(1-oxo-4-(trifluoromethyl)isoindolin-2-yl)phenyl)cyclobutane-1-carbonitrile] | ≤ 15 | ≤ 15 | < 0.4 | < 0.4 | ≤ 1.24 | ≤ 1.24 | ≤ 1 | 1 to 1.15 | ≥ 20 | ≥ 20 | – |
| Cn1cnnc1C[C@]1(c2cccc(NC(=O)c3cc(CN4CCC5(CC5)C4)cc(C4CC4)n3)c2)C[C@H](C#N)C1 [Compound 53, 4-((5-azaspiro[2.4]heptan-5-yl)methyl)-N-(3-((1r,3r)-3-cyano-1-((4-methyl-4H-1,2,4-triazol-3-yl)methyl)cyclobutyl)phenyl)-6-cyclopropylpicolinamide] | 15 to 20 | 15 to 20 | 0.4 to 0.85 | 0.4 to 0.85 | ≤ 1.24 | ≤ 1.24 | 1 to 1.15 | 1 to 1.15 | – | – | < 1 |
| COCC1CCCCN(Cc2cc3c(c(C(F)(F)F)c2)CN(c2cccc([C@]4(Cc5nncn5C)C[C@@H](C#N)C4)c2)C3=O)C1 (stereo partly shown) [Compound 45, (1r,3r)-3-(3-(6-((3-(methoxymethyl)azepan-1-yl)methyl)-1-oxo-4-(trifluoromethyl)isoindolin-2-yl)phenyl)-3-((4-methyl-4H-1,2,4-triazol-3-yl)methyl)cyclobutane-1-carbonitrile] | ≤ 15 | > 20 | 0.4 to 0.85 | > 0.85 | 1.24 to 1.39 | 1.24 to 1.39 | 1 to 1.15 | 1 to 1.15 | 2 to 5 | 2 to 5 | – |
| Cn1cnnc1C[C@]1(c2cccc(N3Cc4c(cc(CNC5CCC(C)(C)C5)cc4C(F)(F)F)C3=O)c2)C[C@H](C#N)C1 (stereo partly shown) [Compound 31, (1r,3r)-3-(3-(6-(((3,3-dimethylcyclopentyl)amino)methyl)-1-oxo-4-(trifluoromethyl)isoindolin-2-yl)phenyl)-3-((4-methyl-4H-1,2,4-triazol-3-yl)methyl)cyclobutane-1-carbonitrile] | > 20 | > 20 | > 0.85 | > 0.85 | > 1.39 | > 1.39 | > 1.15 | > 1.15 | < 1 | < 1 | – |
| C[C@@H]1CN(Cc2cc3c(c(C(F)(F)F)c2)CN(c2cccc([C@]4(Cc5nncn5C)C[C@H](CC#N)C4)c2)C3=O)CCC1(F)F [Compound 52, ((1S,3s)-3-(3-(6-(((R)-4,4-difluoro-3-methylpiperidin-1-yl)methyl)-1-oxo-4-(trifluoromethyl)isoindolin-2-yl)phenyl)-3-((4-methyl-4H-1,2,4-triazol-3-yl)methyl)cyclobutyl)acetonitrile] | – | – | – | – | – | – | – | – | 5 to 20 | 5 to 20 | – |
| Cc1cc(C(=O)Nc2cccc([C@]3(Cc4nncn4C)C[C@@](C)(C#N)C3)c2)nc(C2CC2)n1 [Compound 8, N-(3-((1r,3r)-3-cyano-3-methyl-1-((4-methyl-4H-1,2,4-triazol-3-yl)methyl)cyclobutyl)phenyl)-2-cyclopropyl-6-methylpyrimidine-4-carboxamide] | – | – | – | – | – | – | – | – | ≥ 20 | ≥ 20 | – |
| C[C@@H]1CN(C(C)(C)c2cc3c(c(C(F)(F)F)c2)CN(c2cccc([C@]4(Cc5nncn5C)C[C@@H](C#N)C4)c2)C3=O)CCO1 [Compound 58, (1R,3r)-3-((4-methyl-4H-1,2,4-triazol-3-yl)methyl)-3-(3-(6-(2-((R)-2-methylmorpholino)propan-2-yl)-1-oxo-4-(trifluoromethyl)isoindolin-2-yl)phenyl)cyclobutane-1-carbonitrile] | – | – | – | – | – | – | – | – | 2 to 5 | 2 to 5 | – |
| C[C@@H]1CN(Cc2cc3c(c(C(F)(F)F)c2)CN(c2cccc([C@]4(Cc5nncn5C)C[C@@H](CC#N)C4)c2)C3=O)CCC1(F)F [Compound 51, [(1r,3r)-3-[3-(6-{[(3R)-4,4-difluoro-3-methylpiperidin-1-yl]methyl}-1-oxo-4-(trifluoromethyl)-3H-isoindol-2-yl)phenyl]-3-[(4-methyl-1,2,4-triazol-3-yl)methyl]cyclobutyl]acetonitrile] | – | – | – | – | – | – | – | – | ≥ 20 | ≥ 20 | – |
